In patent US20200361919A1, “DEUTERATED INDOLEAMINE 2,3-DIOXYGENASE INHIBITOR AND APPLICATION THEREOF” (NANJING TRANSTHERA BIOSCIENCES CO. LTD., priority 2017, published 2020):
Where two headings read alike, the source gives them in different places.

Legend:
Hela cells = experiment: Cytological evaluation in rhIFN-γ stimulated Hela cells; format: cell-based; settings: rhIFN-γ 50 ng/ml, read-out: Hela Cell IC50
Description: Test substances: Compounds 1-3 of the present invention, prepared as described in the previous specific Examples.
Hela cell line (Cell Bank, Chinese Academy of Sciences)
Recombinant human IFN-γ (rhIFN-γ, purchased from R&D Systems, Cat. No. 285-IF-100)
Cell plating: Hela cell suspension was prepared with fresh phenol red-free DMEM medium, and 20,000 cells/well were added to a 96-well cell culture plate, and cultured in 5% carbon dioxide at 37° C. overnight.
Preparation of compounds: the compounds were made up into 0.5 mM solution with DMSO, and the compounds were diluted 3.16 times with DMSO to obtain 8 compound mother liquors of concentration gradients (500×), and diluted with cell culture medium to prepare 10× dilutions.
Medication and incubation: After the cells were seeded and cultured overnight, 10 μL of a compound of the corresponding diluted mother liquor (10×) was added to each well and incubated for 1 hour, then 10 μL of 500 ng/ml rhIFN-γ was added, the final volume of each well was 100 μL. The negative control wells contained 100 μL of 0.5% DMSO cell culture medium and Hela cells. The positive control wells were the wells where rhIFN-γ at a final concentration of 50 ng/ml was added to the negative control wells, and the background control wells contained 100 μL of cell culture medium. After incubation in a 37 ° C. incubator for 24 hours. the cell morphology was observed under an inverted microscope.
Detection: After the cell plate was centrifuged, 80 μL of the supernatant was taken and added to a Corning 96-well plate, 10 μL of trichloroacetic acid was added to each well, shaken, placed in a 60 ° C. incubator for 30 minutes, and centrifuged at 2500 rpm for 5 minutes. 45 μL of the supernatant was taken and transferred to a new plate, 45 μL of chromogenic solution was added, shaken to make the reaction uniform. After incubating at room temperature for 15 minutes, the absorbance at 492 nm wavelength was read.

[1] = Stability test of Crystalline Form B; format: physicochemical
Text: Method: Crystalline Form B was left open for 10 days at high temperature and in high humidity conditions. The properties, measured content and impurities of the Crystalline Form B were observed, and the XRPD patterns were compared to obtain the data in Table 6.

[2] = Stability test of Crystalline Form A; format: physicochemical
Text: Method: Crystalline Form A was left open at high temperature and in high humidity conditions, and XRPD patterns were compared to […]. The data in Table 5 below were obtained.

IDO-1 = molecular target: T1, IDO-1 (Homo sapiens, UniProt P14902); experiment: Enzymatic assay, IDO-1; format: biochemical
T1 construct: made in house
Description: (§1) Test substance: Compound 1 of the present invention, prepared according to the method of Example 1 or the Step 3 of Example 5
(§2) I. Experimental materials and instruments
(§3) Preparation of compound: The compound was made up into 1 mM compound mother liquor with DMSO, and then the compound was diluted 3.16 times with DMSO to obtain 10 concentration gradients (100×) of the compound of the diluted mother liquors..
(§4) Medication and incubation: 10 μL of 100× compound of the diluted mother liquors were added into a 96-well plate, to which was added 10 μL of enzyme solution (IDO-1 or TDO), centrifuged at 2000 rpm for 1 minute, and incubated at room temperature for 30 minutes. 4% DMSO enzyme-free solution was used as a negative control, and 4% DMSO enzyme-containing solution was used as a positive control. 20 μL of substrate mixture (L-tryptophan, ascorbate, methylene blue, catalase) was added and incubated for 1 hour at room temperature, then 20 μL of stop solution was added to the experimental plate to terminate the reaction. After shaking and mixing, incubation was carried out at 60° C. for 30 minutes. […]
(§5) Detection: A microplate reader was used to detect the absorbance value at 492 nm.
(§6) Calculation: The inhibition rate was calculated according to the following formula, using the Spectramax program to fit the curve slope, and using GraphPad Prism5.0 to fit the IC50: […]

TDO = molecular target: T2, TDO (Homo sapiens, UniProt P48775); experiment: Enzymatic assay, TDO; format: biochemical
T2 construct: made in house
Description: as §1, §2, §3, §4, §5, §6

[3] = Evaluation of pharmacokinetics in mice; format: in vivo, C57BL/6 female mice; settings: for Cl_obs / Vz_obs / tz 1/2 / AUC(0-t) / AUC(0-inf): IV 5 mg/kg, C57BL/6 female mice, mean; for AUC(0-t) / AUC(0-inf): mouse, plasma; for AUC(0-inf): read-out: AUCINF_obs
Description: Test substance: Compound 1 of the present invention,prepared according to the method of Example 1 or Step 3 of Example 5;
Compound R, prepared as described in Example 8.
Animal: C57BL/6 female mice
The Compound 1 used in the test was dissolved in 10% DMA+10% (30% solutol)+80% saline to prepare a solution, and the non-deuterated compound was dissolved in 10% DMA+10% PEG+80% saline to prepare a solution. C57BL/6 female mice were administered intravenously with Compound 1 at a dose of 5.0 mg/kg. The time points for blood sampling were: 5 min, 15 min, 30 min, 1 h, 2 h, 4 h, 6 h, 8 h, and 24 h. About 100 μL of blood was collected from the venous plexus, and the blood sample was placed in an anti-coagulation tube containing EDTA-K2. The blood sample was centrifuged at 8000 rpm for 6 minutes at 4° C. to obtain a plasma sample, wherein the plasma must be prepared within 30 minutes after blood sampling, and stored in −80° C. refrigerator before plasma testing.
The sample (−80° C.) to be tested was taken out from the refrigerator, melted at room temperature and vortexed for 5 minutes; 10 μL of plasma samples of 3 different individuals were precisely pipetted into 1.5 mL centrifuge tubes (for standard curve of plasma, 30 μL); 200 μL of 100 ng/mL internal standard working solution was added, and mixed well; vortexed for 5 min, then centrifuged for 5 min (12000 rpm); precisely pipetted 50 μL of supernatant into a 96-well plate to which was added 150 μL/well of water in advance; vortexed and mixed for 5 min. The injection volume was 15 μL, and LC-MS/MS measurement was carried out.
The concentrations of test substance were used from the analysis results of AB Analyst 1.6.3. Microsoft Excel was used to calculate the parameters such as mean, standard deviation, and coefficient of variation (those directly output from Analyst 1.6.3 were not calculated). The PK parameters were calculated using Pharsight Phoenix 6.1 software NCA.

CT26 cells = experiment: In vivo pharmacodynamics, subcutaneous homograft model with colon cancer cell CT26 in mouse; design: species or system Balb/C mice; settings: 150 mg/kg PO Bid 10 days, CT26 tumor-bearing mice
Description: Test substance: Compound 1 of the present invention, which structure was shown in the foregoing.
CT26 cells were cultured in RPMI1640 medium containing 10% fetal bovine serum. CT26 cells in exponential growth phase were collected, and resuspended in PBS to a suitable concentration for subcutaneous tumor inoculation in mice.
0.1 mL of cell suspension (cells suspended in PBS) containing about 5×10^5 CT26 cells was subcutaneously inoculated into the skin of the right back of female Balb/C mice. The mice were grouped and administrated when the average tumor volume reached about 100 mm^3. Grouping method: weighing animals before administration, and measuring tumor volume. According to tumor volume, the mice were grouped using block design, 9 mice in each group.
Administration was performed according to Table 7 below.
The animals' health and death were monitored daily, their body weights and tumor volumes were measured twice a week, and samples were collected after the last dose. The curative effect of tumor volume was evaluated by TGI%, wherein relative tumor suppression rate TGI (%) was: TGI=1-T/C (%). T/C% was the relative tumor increment rate, that is, the percentage of tumor volume in the treatment group relative to that of the control group at a specific time point. […]

[4] = High temperature, 60° C., left open, 10 days
[5] = IV 5 mg/kg mice, compared with Compound R

T2 sequence (P48775 whole entry, species assumed): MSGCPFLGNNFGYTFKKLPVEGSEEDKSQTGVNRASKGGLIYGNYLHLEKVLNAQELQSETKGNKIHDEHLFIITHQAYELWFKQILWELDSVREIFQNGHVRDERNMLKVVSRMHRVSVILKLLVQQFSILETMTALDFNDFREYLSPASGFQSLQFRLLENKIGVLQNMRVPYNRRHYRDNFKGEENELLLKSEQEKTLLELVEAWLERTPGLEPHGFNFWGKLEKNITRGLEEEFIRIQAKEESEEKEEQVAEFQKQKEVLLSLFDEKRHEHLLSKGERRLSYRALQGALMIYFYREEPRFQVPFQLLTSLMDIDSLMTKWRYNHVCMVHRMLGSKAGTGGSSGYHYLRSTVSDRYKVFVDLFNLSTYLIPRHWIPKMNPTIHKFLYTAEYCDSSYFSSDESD
T1 sequence (P14902 whole entry, species assumed): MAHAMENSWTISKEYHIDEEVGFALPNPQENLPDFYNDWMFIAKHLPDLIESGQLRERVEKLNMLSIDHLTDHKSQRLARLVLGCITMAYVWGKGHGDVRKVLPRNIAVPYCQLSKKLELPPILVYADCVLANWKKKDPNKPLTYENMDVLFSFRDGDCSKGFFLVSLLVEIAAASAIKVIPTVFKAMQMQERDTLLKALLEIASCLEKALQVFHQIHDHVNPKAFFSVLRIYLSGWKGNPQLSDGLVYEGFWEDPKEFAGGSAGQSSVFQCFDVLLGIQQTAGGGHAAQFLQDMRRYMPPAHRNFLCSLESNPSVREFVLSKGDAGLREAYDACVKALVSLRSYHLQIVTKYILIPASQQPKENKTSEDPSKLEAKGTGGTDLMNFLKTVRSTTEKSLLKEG

**Q.** What does the source list for `[2H]C1([2H])CC(Nc2nonc2C(=NO)Nc2ccc(F)c(Br)c2)CC([2H])([2H])S1(=O)=O` [Crystal Form B of Compound 1]?
**A.** IC50 (Hela cells; 24 hours): 30 nM; Content, % ([1]; 0-Day): 99.6%; Impurity, % ([1]; 0-Day): 0.17%; Properties ([1]; 0-Day): Off-white; XRPD ([1]; 0-Day): Crystal Form B,; Content, % [1, 4]: 99.4%; Impurity, % [1, 4]: 0.16%; Properties [1, 4]: Off-white; Content, % ([1]; RH 92.5%, left open, 10 days): 99.3%; Impurity, % ([1]; RH 92.5%, left open, 10 days): 0.15%; Properties ([1]; RH 92.5%, left open, 10 days): Off-white

**Q.** With `[2H]C1([2H])CC(Nc2nonc2C(=NO)Nc2ccc(F)c(Br)c2)C([2H])([2H])S1(=O)=O` (stereo not drawn) [Compound 2, N-(3-bromo-4-fluorophenyl)-4-((1,1-dioxotetrahydro-thiophen-3-yl-2,2,5,5-d4)amino)-N-hydroxy-1,2,5-oxadiazole-3-carboxamidine] as the compound, how does the IC50 (Hela cells; Homo sapiens, HeLa, 24 h) read?
**A.** 50.5 nM

**Q.** With `[2H]C1([2H])C(Nc2nonc2C(=NO)Nc2ccc(F)c(Br)c2)C([2H])([2H])S1(=O)=O` [Compound 3, N-(3-bromo-4-fluorophenyl)-4-((1,1-dioxothiacyclobutan-3-yl-2,2,4,4-d4)amino)-N′-hydroxy-1,2,5-oxadiazole-3-carboxamidine] as the compound, how does the IC50 (Hela cells; Homo sapiens, HeLa, 24 h) read?
**A.** 49.6 nM

**Q.** What does the source list for `[2H]C1([2H])CC(Nc2nonc2C(=NO)Nc2ccc(F)c(Br)c2)CC([2H])([2H])S1(=O)=O` [Crystal Form A of Compound 1]?
**A.** IC50 (Hela cells; 24 hours): 40 nM; Impurity, % ([2]; 0-Day): 0.74%; XRPD ([2]; 0-Day): Crystal Form A, FIG. 1; XRPD ([2]; High temperature, 105° C., left open, 3 days): Consistent with the 0-day XRPD; XRPD ([2]; RH 92.5%, left open, 3 days): Consistent with the 0-day XRPD; Impurity, % ([2]; RH 92.5%, left open, 10 days): 0.99%

**Q.** Which IC50 (IDO-1) does the source give for `[2H]C1([2H])CC(Nc2nonc2C(=NO)Nc2ccc(F)c(Br)c2)CC([2H])([2H])S1(=O)=O` [Compound 1, N-(3-bromo-4-fluorophenyl)-4-((1,1-dioxotetrahydro-2H-thian-4-yl-2,2,6,6-d4)amino)-N′-hydroxy-1,2,5-oxadiazole-3-carboxamidine] here?
**A.** 85.4 nM

**Q.** And the IC50 (TDO)?
**A.** 5040 nM

**Q.** And the IC50 (Hela cells; 24 hours)?
**A.** 99.7 nM

**Q.** What about the “clearance rate (in words)” value [3, 5] of the same compound?
**A.** lower

**Q.** What about the “exposure amount (in words)” value [3, 5] of the same compound?
**A.** higher

**Q.** And the Cl_obs [3]?
**A.** 36.5 mL/min/kg

**Q.** And the Vz_obs [3]?
**A.** 11.7 L/kg

**Q.** And the “tz 1/2” value [3]?
**A.** 3.70 h

**Q.** And the AUC(0-t) [3]?
**A.** 2040 ng·h/mL

**Q.** What about the AUC(0-inf) [3] of the same compound?
**A.** 2290 ng·h/mL

**Q.** What about the “TGI (tumor volume inhibition rate)” value (CT26 cells) of the same compound?
**A.** 38%

**Q.** And the Tumor volume (CT26 cells)?
**A.** 414.32 ± 52.44 mm^3

**Q.** For `O=S1(=O)CCC(Nc2nonc2C(=NO)Nc2ccc(F)c(Br)c2)CC1` [Compound R, N-(3-bromo-4-fluorophenyl)-4-((1,1-dioxotetrahydro-2H-thian-4-yl)amino)-N′-hydroxy-1,2,5-oxadiazole-3-carboxamidine, reference compound], which Cl_obs [3] is on record?
**A.** 73.2 mL/min/kg

**Q.** What about the Vz_obs [3] of the same compound?
**A.** 12 L/kg

**Q.** And the “tz 1/2” value [3]?
**A.** 1.81 h

**Q.** What about the AUC(0-t) [3] of the same compound?
**A.** 1120 ng·h/mL

**Q.** And the AUC(0-inf) [3]?
**A.** 1140 ng·h/mL
